Experimental data as given in paper PMC10762250, “Molecular mechanism of antihistamines recognition and regulation of the histamine H1 receptor” (Nature Communications, 2024).

Key:
hERG potassium channel = details: cited from earlier work
H1R F199^5.47 mutant = system: H1R F199^5.47 mutant; set-up: method as in PMID 25013351; details: F199 single mutation; cited from earlier work
H1R W428^6.48 mutant = system: H1R W428^6.48 mutant; set-up: method as in PMID 25013351; details: W428 single mutation; cited from earlier work
H1R F432^6.52 mutant = system: H1R F432^6.52 mutant; set-up: method as in PMID 25013351; details: F432 single mutation; cited from earlier work
H1R N198A = details: cited from earlier work
H1R Y108^3.33 mutant = system: H1R Y108^3.33 mutant; set-up: method as in PMID 25013351; details: Y108 single mutation; cited from earlier work
H1R W158^4.56 mutant = system: H1R W158^4.56 mutant; set-up: method as in PMID 25013351; details: W158 single mutation; cited from earlier work
guinea pig H1R F436A = details: cited from earlier work
H1R Y431^6.51 mutant = system: H1R Y431^6.51 mutant; set-up: method as in PMID 25013351; details: Y431 single mutant; cited from earlier work
H1R-H450A [1] = molecular target: T1, H1R-H450A (Homo sapiens, UniProt P35367, H450A); details: H450A vs wild type
T1 sequence (P35367 whole entry H450A): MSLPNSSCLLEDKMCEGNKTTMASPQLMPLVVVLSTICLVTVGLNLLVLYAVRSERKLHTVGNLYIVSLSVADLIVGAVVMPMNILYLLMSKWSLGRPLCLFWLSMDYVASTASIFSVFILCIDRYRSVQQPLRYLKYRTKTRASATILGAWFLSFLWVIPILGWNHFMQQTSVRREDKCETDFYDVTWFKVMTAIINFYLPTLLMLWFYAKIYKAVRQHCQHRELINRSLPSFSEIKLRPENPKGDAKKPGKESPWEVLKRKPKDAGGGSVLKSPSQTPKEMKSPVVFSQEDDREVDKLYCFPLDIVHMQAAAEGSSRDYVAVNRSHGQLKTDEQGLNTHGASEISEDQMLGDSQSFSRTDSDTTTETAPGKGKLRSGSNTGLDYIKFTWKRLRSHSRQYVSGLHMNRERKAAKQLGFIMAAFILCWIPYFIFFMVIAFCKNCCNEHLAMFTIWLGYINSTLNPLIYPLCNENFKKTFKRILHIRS
Method: (§1) HEK293 cells were seeded into 24-well culture plates (Corning) at a density of 0.1 million per well and incubated overnight at 37 °C with 5% CO2. […] Twenty-four hours after transfection, the culture media was removed, and transfected cells were harvested and washed with Dulbecco’s phosphate buffered saline (DPBS) buffer (Gibco) twice and then resuspended in Hank’s balanced salt solution (HBSS) buffer (Beyotime) at a density of 1.0 × 10^6 cells per milliliter. […] The accumulation of IP1 was calculated according to a standard dose–response curve in GraphPad Prism 8 (GraphPad Software). Data are represented as the mean ± SEM, n = 3 independent samples.

[2] = system: non-H1R targets, including the potassium channel; details: cited from earlier work
H1R-H450A [3] = molecular target: T1, H1R-H450A; experiment: cell-based
Method: as §1

Compound: COc1ccc(CCN2CCC(Nc3nc4ccccc4n3Cc3ccc(F)cc3)CC2)cc1 [astemizole]
- hERG potassium channel block (hERG potassium channel): blocks

Compound: COc1ccc(CN(CCN(C)C)c2ccccn2)cc1 [mepyramine]
- Effect of mutation on H1R affinity (H1R F199^5.47 mutant): abolished
- Effect of mutation on H1R affinity (H1R W428^6.48 mutant): abolished
- Effect of mutation on H1R affinity (H1R F432^6.52 mutant): abolished
- Effect of mutation on affinity (H1R N198A): did not cause obvious affinity loss
- Effect of mutation on binding activity (H1R Y108^3.33 mutant): completely disrupted
- Effect of mutation on binding activity (H1R W158^4.56 mutant): completely disrupted
- Decrease in affinity by mutation (guinea pig H1R F436A): 20 fold
- Effect of mutation on binding activity (H1R Y431^6.51 mutant): completely disrupted

Compound: CN(c1nccc(=O)[nH]1)C1CCN(c2nc3ccccc3n2Cc2ccc(F)cc2)CC1 [mizolastine]
- Effect of mutation on ability/efficacy to inhibit H1R signaling (H1R-H450A [1]): obviously crippled
- Cross-interaction with non-H1R targets [2]: does not cross-interact with any non-H1R targets
- Emax (H1R-H450A [3]): 36.1 ± 4.94%
- IC50 (H1R-H450A [3]): 5.14 ± 0.13 nM
